Data set [1] addresses T1, Syk (Mus musculus, UniProt P48025).
T1 construct: formalin-fixed paraffin sections of intestine and lung were subjected to rehydration and antigen retrieval; from tissue; host or cells: intestine and lung of C57BL/6J mice
Briefly: Syk staining in intestine and lung by immunohistochemistry. The class given is in vivo. The following applies: pre-treatment with Syk inhibitor, IHC. As for the experimental part: (§1) In order to perform immunohistochemistry (IHC) staining, formalin-fixed paraffin sections of intestine and lung were subjected to rehydration and antigen retrieval using a standard protocol. For IHC studies, the following reagents were used: rabbit anti-mouse Syk (N-19) (Santa Cruz, Calif.), rabbit anti-mouse p-Syk (phospho Y323) (Abeam, Inc.), and rabbit anti-mouse C3 (B-9) (Santa Cruz, Calif.).
Syk expression in the intestine and lung were evaluated by IHC. Syk staining in intestines and lungs were more prominent in I/R groups than in sham-operated groups.

The subject of data set [2] is IgM deposition. Briefly: IgM staining in intestine and lung by immunofluorescence. The format is in vivo, mouse. The conditions noted are these: I/R intestinal and lung samples, both tissues. As for the experimental part:
(§2) For immunofluorescence (IF) staining, formalin-fixed paraffin-embedded sections were blocked with 10% BSA-PBS at room temperature for 1 hour and incubated with FITC-labeled primary or secondary antibodies at room temperature for 1 hour. The slides were washed, and coverslips were mounted with Dako Fluorescent mounting medium and analyzed by confocal microscopy (Nikon Eclipse Ti, Nikon Instruments, Melville, N.Y.). FITC-labeled goat anti-mouse IgG (Santa Cruz, Calif., sc2010), FITC-labeled rat anti-mouse C3 (11H9) (Santa Cruz, Calif., sc-58926), FITC-labeled goat anti-mouse IgM (Southern Biotech, 1021-02), and FITC-labeled rat anti-mouse Ly-6G and LY-6C (Clone R6B-8C5) (BD Pharmingen) were the antibodies used in these studies.
Reperfusion after ischemia induced alteration of the endothelial membrane and allows neoantigen expression. Circulating natural IgM antibodies bind to these antigens and may trigger complement-mediated injury (Williams et al., J Applied Physiol. 86: 938-942, 1999). Therefore, we performed IgM staining by IF, as described above. There was increased IgM staining in I/R intestinal and lung samples when compared to the sham tissues. […] Unlike the differences detected for natural IgM staining, we were only able to detect minimal IgG staining in all groups (data not shown).

Data set [3] has as its target T2, phosphorylated Syk (p-Syk) (Mus musculus, UniProt P48025).
T2 construct: formalin-fixed paraffin sections of intestine and lung were subjected to rehydration and antigen retrieval; from tissue; host or cells: intestine and lung of C57BL/6J mice
The data set can be described thus: p-Syk staining in intestine and lung by IHC and IF. The conditions noted are these: I/R mice group, Syk inhibitor treatment, 3-hour reperfusion. The format is in vivo.
Source text: as §1, §2
Because the Syk inhibitor suppresses the expression of phosphorylated Syk (p-Syk), the active form of Syk, we performed p-Syk staining by using IHC and IF. We observed staining in I/R group mice. […] After a 3-hour reperfusion, we detected only slight p-Syk staining.

Data set [4] concerns C57BL/6J mice subjected to mesenteric I/R (lung). The data set can be described thus: Remote lung injury scoring (H&E) after mesenteric ischemia-reperfusion. The class given is in vivo, mouse. The following applies: mean±SEM; for total lung injury score: I/R mice, 3 h reperfusion, scale 0-18. The text has this: (§3) Mice were randomly assigned to the following experimental groups: (a) mouse chow+sham procedures, (b) mouse chow+I/R procedures, (c) control chow+sham procedures, (d) control chow+I/R procedures, (e) R788 (3 g/kg)+sham procedures, (f) R788 (3 g/kg)+I/R procedures, and (g) R788 (5 g/kg)+I/R procedures […].
(§4) Syk inhibitor R788 was provided by Rigel Pharmaceuticals (South San Francisco, Calif.). Mice were fed food containing R788 (3 g/kg of chow, n=6 or 5 g/kg of chow, n=3), control chow (n=6), or regular chow (n=6). Food was prepared by Research Diets, Inc. (New Brunswick, N.J.). C57BL/6J mice were fed the R788-containing chow ad libitum for 6 days prior to experimentation in order to determine the effect of R788 on I/R injury.
Animals underwent I/R as had been described previously (Chiu et al., Arch Surg. 101: 478-483, 1970 and Fleming et al., J Immunol. 169: 2126-2133, 2002). Briefly, we performed a midline laparotomy before a 30-minute equilibration period. […] The laparotomy incisions were sutured with 4.0 SOFSILK™, the mice resuscitated with 1.0 mL pre-warmed sterile phosphate-buffered saline (PBS) subcutaneously, and monitored during the reperfusion period. […]
Alveolar and periluminal injury scores in each lung section were calculated based on Cooke's method (Cooke et al., Blood 8: 3230-3239, 1996). For each lung section, we examined 10-20 fields at high power field magnification (400×) and scored for alveolar infiltration on a 3-tiered scale. The calculation of alveolar scores was as follows: when no infiltrate was present, a score of 0 was given; when the infiltrate could be visualized easily only at 400×, a score of 1 was assigned; when infiltrates were readily visible, a score of 2 was assigned; and the score for consolidation was 3. Similarly, each section was scored for periluminal damage (airway or blood vessel) at 100×. […] Based on the overall involvement of the section, a severity score was calculated: the severity score for 0-25% involvement was 1; a severity score of 2 was assigned for 25-50% involvement; and the severity score for >50% involvement was 3. […]

For data set [5], the system named is neutrophil infiltration. The data set can be described thus: Neutrophil infiltration (GR-1 staining) in intestine and lung. The format is in vivo, mouse. As for the experimental part: as §2
Therefore, we evaluated the presence of neutrophils in the intestine and lung after sham and I/R procedures in mice treated with Syk inhibitor. Mice subjected to I/R had more prominent GR-1 staining within the intestinal tissue after 3-hour reperfusion when compared to the sham-operated mice group.

The subject of data set [6] is C57BL/6J mice subjected to mesenteric I/R (intestine). The data set can be described thus: Intestinal mucosal injury scoring (H&E) after mesenteric ischemia-reperfusion. The class given is in vivo, mouse. The following applies: mean±SEM; for intestinal injury score (mucosal injury score): I/R mice, 30 min ischemia, 3 h reperfusion, scale 0-6.
Source text: as §3, §4
Animals underwent I/R as had been described previously (Chiu et al., Arch Surg. 101: 478-483, 1970 and Fleming et al., J Immunol. 169: 2126-2133, 2002). Briefly, we performed a midline laparotomy before a 30-minute equilibration period. […] A small non-traumatic microvascular clip delivering approximately 85 grams of pressure was then applied for 30 minutes. The clip was removed after this ischemia phase, and the intestines were allowed to reperfuse for 3 hours. Sham-operated mice underwent the above-described surgical intervention without artery occlusion. The laparotomy incisions were sutured with 4.0 SOFSILK™, the mice resuscitated with 1.0 mL pre-warmed sterile phosphate-buffered saline (PBS) subcutaneously, and monitored during the reperfusion period. […]
For histological analysis, 20-cm segments of small intestine specimens were fixed in 10% buffered formalin phosphate immediately after euthanasia. […] To summarize, a normal villus was assigned a score of 0; villi with tip distortion were scored as 1; villi without goblet cells and with Guggenheims' spaces were scored as 2; villi with patchy disruption of the epithelial cells were scored as 3; villi with exposed but intact lamina propria and sloughing of epithelial cell were scored as 4; villi with exuding lamina propria were scored as 5; and villi with hemorrhage or denudation were scored as 6. […]

Data set [7] deals with complement component 3 protein (C3) deposition. Briefly: C3 deposition in intestine and lung by IHC and IF. The class given is in vivo, mouse. The following applies: I/R mice treated with Syk inhibitor.
Source text: as §1, §2
It has been reported that I/R activates the complement system, as indicated by C3 deposition on the intestine (Williams et al., supra). […]

For data set [8], the system named is Syk. The data set can be described thus: Syk expression by Western blot in T cells transfected with Syk siRNA. The class given is cell-based. The following applies: T cells electroporated with siRNA at 0.5, 0.7, 0.9, 1.5 and 2 μM per million, approximately 72 hours. As for the experimental part:
Different concentrations (0.5, 0.7, 0.9, 1.5, and 2 μM per million) of T cells were transfected by electroporation using Amexa Nucleofector solution. Briefly, a total of 5×10^6 T cells were re-suspended in 100 μl Nucleofector solution (Lonza Walkerrsville Inc.; Walkersville, Md.). The desired amount of Syk siRNA was mixed in with the T cell/nucleofector suspension and electrporated. The transfected cells were plated in RPMI-1640 medium without any antibiotic and incubated for approximately 72 hours. After proper incubation, transfected T cells were lysed in RIPA buffer, and Western blotting was performed with an antibody against total Syk (Clone 4D10; Santa Cruz Biotechnology, Inc.; Santa Cruz, Calif.).

The mark [9] stands for this setting: sham-operated mice, Syk inhibitor (R788 3 g/kg chow).

T1 sequence (P48025 whole entry): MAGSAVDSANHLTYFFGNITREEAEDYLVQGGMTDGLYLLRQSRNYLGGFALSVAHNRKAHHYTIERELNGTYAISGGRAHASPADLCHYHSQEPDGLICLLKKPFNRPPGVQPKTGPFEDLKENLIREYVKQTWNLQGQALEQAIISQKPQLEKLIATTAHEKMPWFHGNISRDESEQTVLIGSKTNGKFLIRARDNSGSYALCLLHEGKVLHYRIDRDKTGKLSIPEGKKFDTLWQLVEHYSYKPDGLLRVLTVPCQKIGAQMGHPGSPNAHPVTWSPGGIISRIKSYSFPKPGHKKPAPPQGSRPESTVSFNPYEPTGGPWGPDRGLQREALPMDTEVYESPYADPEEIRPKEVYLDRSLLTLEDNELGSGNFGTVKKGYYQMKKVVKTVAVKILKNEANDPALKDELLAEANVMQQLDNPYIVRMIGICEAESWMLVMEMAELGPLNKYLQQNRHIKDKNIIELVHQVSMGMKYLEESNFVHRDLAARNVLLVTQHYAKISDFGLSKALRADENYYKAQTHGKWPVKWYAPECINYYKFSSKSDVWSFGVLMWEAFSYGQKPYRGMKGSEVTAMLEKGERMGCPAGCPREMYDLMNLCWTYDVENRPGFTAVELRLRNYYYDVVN
T2 sequence (P48025 whole entry): as above

As for `COc1cc(Nc2ncc(F)c(Nc3ccc4c(n3)N(COP(=O)(O)O)C(=O)C(C)(C)O4)n2)cc(OC)c1OC` [R788], the “Syk staining in either the intestine or the lung” value in data set [1] is given as “did not cause any changes”. Also, the “IgM deposition (immunofluorescence staining)” value in data set [2] is recorded as “reduced IgM deposition”. The “p-Syk staining in the lung and intestine” value in data set [3] was “eliminated p-Syk staining”. Moreover, the “total lung injury score” value amounted to 1.36±0.18 in data set [4] (3 g/kg R788 in chow for 6 days) and 1.1±0.46 in data set [4] (5 g/kg R788 in chow for 6 days). In addition, the “average pulmonary damage score” value in data set [4] (setting [9]) stood at 1.03±0.26. Also, the “I/R-induced neutrophil infiltration (GR-1 staining)” value in data set [5] (intestinal tissue, 3-hour reperfusion) is on record as “prevented I/R-induced neutrophil infiltration”. The “neutrophil infiltration in the lung tissues” value in data set [5] (lung tissue, I/R mice) is given as “decreased infiltration”. The “intestinal injury score (mucosal injury score)” value came to 0.58±0.08 in data set [6] (3 g/kg R788 in chow for 6 days) and 0.92±0.14 in data set [6] (5 g/kg R788 in chow for 6 days). Further, in data set [6] (setting [9]), the intestinal injury score is listed as 0.42±+0.33. The “C3 staining in the intestinal mucosa” value in data set [7] (intestine) is given as “attenuated C3 staining”. For the same compound, the “C3 deposition in the lungs” value in data set [7] (lung) is listed as “limited C3 deposition”.

Regarding “SEQ ID NOs: 1 and 2: Syk-specific siRNA pair: sense GGAUAAGAACAUCAUAGAAtt, antisense UUCUAUGAUGUUCUUAUCCtt (sense GGAUAAGAACAUCAUAGAATT; antisense UUCUAUGAUGUUCUUAUCCTT; chemistry not given here)”, the “Syk expression (Western blot)” value in data set [8] is reported as “can be inhibited”.

As to “SEQ ID NOs: 3 and 4: Syk-specific siRNA pair: sense CGCUCUUAAAGAUGAGUUAtt, antisense UAACUCAUCUUUAAGAGCGgg (sense CGCUCUUAAAGAUGAGUUATT; antisense UAACUCAUCUUUAAGAGCGGG; chemistry not given here)”, the “Syk expression (Western blot)” value in data set [8] is “can be inhibited”.

As to “SEQ ID NOs: 5 and 6: Syk-specific siRNA pair: sense GCACUAUCGCAUCGACAAAtt, antisense UUUGUCGAUGCGAUAGUGCag (sense GCACUAUCGCAUCGACAAATT; antisense UUUGUCGAUGCGAUAGUGCAG; chemistry not given here)”, the “Syk expression (Western blot)” value in data set [8] is given as “can be inhibited”.

These data come from US10028975B2, “Methods for treating ischemia-reperfusion injury” (Beth Israel Deaconess Medical Center, Inc., priority 2010, dated 2018).
